Experiments:
skin wound = test: Skin wound healing model (splinted wound); assay type: in vivo, mouse; conditions: day 4; topical 20 μg daily
Text: The model has been previously described. Briefly, C57BL/6 female mice (8-10 weeks old) were obtained from Jackson labs (Sacramento, CA). A fresh, full-thickness punch wound (4 mm diameter) using a punch (Acu Punch, Acuderm inc. Ft. Lauderdale, FL) splinted with a sterile neoprene ring (6-mm outer diameter and 4-mm inner diameter), fastened with 5-6 sutures (4-0 nylon) under the influence of Isoflurane was created on the back of the animal in a Class II Biological Safety Cabinet. For all surgical procedures, sterile technique was followed. Buprenorphine was given subcutaneously prior to awakening from anesthesia for anticipated pain. Mice were monitored until fully awake and were housed individually to minimize damage/biting/fighting to the surgical site. […] Treatment agents were prepared in PBS, sterile-filtered and 25 μl solution was applied daily directly to a wound bed for the first 4-5 days under the influence of Isoflurane, followed by daily observation. Wound closure was monitored by regular imaging and the wound area was quantified using ImageJ (National Institutes of Health, Bethesda, MD, USA). […] Epithelial gap was measured histomorphometrically using AxioVision LE Rel.4.4 software. […] Small vessels stained positive for CD31 were counted microscopically on 10 fields (20×) taken around the wound.

Bip, CHOP and ATF-6 = test: Western blot of UPR responsive proteins in BCECs; assay type: cell-based, bovine; conditions: growing cells deprived of growth factor supply
Method: (§1) Cells were allowed to reach ˜80% confluency in 12-well plates. […] At various time points, plates were taken out of the incubator and kept on ice. Cell monolayers were first washed once with ice-cold PBS before lysis with 250 μl of Pierce RIPA buffer (ThermoFisher Scientific, Rockford, IL) or use 50 mM Tris-HCl (pH 7.6), 150 mM NaCl, 10% Glycerol, 1% NP-40 containing protease/Phosphatase inhibitor cocktail (100×) (Cell signaling, #5872). Lysates were collected and mixed with 4×Bolt LDS Sample Buffer (Novex, Carlsbad, CA) in the presence of Halt protease inhibitors and phosphatase inhibitor cocktail (ThermoFisher scientific, #NP0007). The samples were subjected to SDS-PAGE (Bolt 4-12% Bis-Tris Plus, Invitrogen) using Bolt MES SDS running buffer or NuPAGE 3-8% Tris-Acetate gel using Tris-Acetate SDS running buffer (Novex). HUVECs (passage 6-8) were plated in EBM-2 basal medium (Lonza) with 0.2% FBS. […] Equal amounts of protein lysates were analyzed by SDS-PAGE and blotted with the indicated antibodies. Proteins were transferred using Tris-Glycine buffer with 20% Methanol (Proteonomics grade) (Apex BioResearch Products). Membranes were first incubated with 5% milk in TBST, pH 7.6 (TEKnova, Hollister, CA), followed by blotting with primary and secondary antibodies. ECL anti-rabbit IgG, horseradish peroxidase linked whole antibody from donkey or sheep anti-mouse were obtained from GE Healthcare (UK limited). SuperSignal West Dura Extended Duration substrate was from ThermoFisher Scientific. In some cases, the same PVDF membranes were stripped by 8-min incubation in the Restore Plus Western Blot Stripping Buffer (ThermoFisher Scientific) to show total specific protein expression, followed by second stripping for β-actin expression.

[1] = system: bovine choroidal microvascular endothelial cells (BCEC); test: BCEC proliferation assay; assay type: cell-based
Method: Proliferation assays with BCECs and BRECs were performed. Log-phase growing BCECs or BRECs (passage <10) were trypsinized, re-suspended and seeded in 96-well plates (no coating) in low-glucose DMEM supplemented with 10% bovine calf serum, 2 mM glutamine, and antibiotics (growth medium), at a density of 1200-1500 cells per well in 200 μl volume. All reagents were added at the indicated final concentrations. […] Fluorescence was measured at 530 nm excitation wavelength and 590 nm emission wavelength. The experiments were repeated at least three times. […] On each 96-well plate, untreated and VEGF-treated (10/ng/ml) wells were included to monitor plate-to-plate variations. 20% methanol or 0.05% DMSO served as negative controls. 0.05% DMSO served as negative controls when Cas was tested in these cells. Human […] and human adult […] were split into Gelatin-coated 96 wells (2000 cells per well) in low glucose DMEM containing 10% FBS. 1200 cells/well was set up for proliferation assay in low glucose media containing FBS. […] HUVEC (p7-10) were grown on gelatin-coated plate until it reached 70-80% confluency. On the day of the assay, cells were dissociated with 0.05% trypsin, which was neutralized with 0.5% FBS-containing EBM. Cells were briefly spun and then re-suspended in 0.5% FBS-media. Cells were counted and plated in 96-well, 1000 cells/well. Triplicate wells were used for each treatment. Data were collected at day 3, and then cells were fixed in 4% paraformaldehyde for 15 min before adding crystal violet. Cell-covered areas were quantified after taking pictures by Image J software.

[2] = system: BCEC confluent monolayers; test: BCEC scratch assay; assay type: cell-based, bovine; conditions: 40 uM ManN or 50 ng/ml of VEGF; after 48 hours
Method: BCECs (passage 6-10) and HUVEC (passage 6-8) were used in this assay. Cells were grown until about 80% confluency in 6-well plates, washed twice with PBS and then starved in serum-free DMEM (low Glucose, Hyclone) for 5 hrs before making a “scratch” using 1 ml tip. Cell monolayers were briefly washed once with serum-free media, followed by various treatments in media containing 1% FBS. 48 hrs later, the assay was stopped by adding 2 ml 4% paraformaldehyde. 20 min later, fixed cells were stained with 1 ml Crystal Violet (Sigma). Plates were washed gently under the running tap water and air-dried before taking pictures. Images were acquired by ZEISS Discovery […] microscopy equipped with […] camera. Quantification of wound closure was done using AxioVision LE Rel.4.4 software. Six images were taken for each sample and six measurements (in pixel) were made on each image using AxioVision LE Rel.4.4 software.

VEGFR2 = test: Western blot of VEGFR2 molecular mass in BCECs and BRECs; assay type: cell-based, bovine; conditions: BCECs and BRECs
Method: Glycerol-free PNGase F was obtained from New England Biolabs (Ipswich, MA). Briefly, BCECs were lysed with NP-40 containing proteinase inhibitors (Thermo Scientific, Waltham, MA). Lysates were cleared at 4° C. at 5000 g for 25 mins. Total protein content was measured using Pierce BCA protein assay kit (ThermoScientific). […] of protein was mixed with 10× denaturing buffer and H2O to a total volume of […]. Glycoproteins were denatured at 100° C. for 10 mins, followed by adding Glycobuffer and PNGase F. The reaction was carried out at 37° C. for 2 hr.
as §1

## VEGF
Skin wound
  average closure of the wound: 66.9%
Bip, CHOP and ATF-6
  Bip expression: not
[1]; 5 ng/ml VEGF
  fold increase in cell proliferation: 4-5 fold
[1]; glucose-free media
  dependence of VEGF activity on glycolysis: not dependent on the glycolysis pathway
[2]
  closure of the scratched area compared to control: significantly accelerated
VEGFR2
  effect on apparent molecular mass of VEGFR2: no effect

From patent US20230390315A1, “COMPOSITIONS AND METHODS FOR TREATING ISCHEMIC CONDITIONS” (The Regents of the University of California, priority 2020, published 2023)
